Test results published in paper PMC4076215, “Nickel(II) Complex of Polyhydroxybenzaldehyde N4-Thiosemicarbazone Exhibits Anti-Inflammatory Activity by Inhibiting NF-κB Transactivation” (PLoS ONE, 2014).
“Also recorded” adds a separate entry of the source.

Tests used:
[1] = system: Human Umbilical Vein Endothelial Cells (HUVEC); assay: Cell growth inhibition on primary HUVEC; assay type: cell-based
RAW264.7 cells = assay: Cell proliferation (MTT) assay, RAW264.7; conditions: RAW264.7 cells, 48 h treatment
Method: A total number of 1.0×10^4 cells per well were seeded into a 96-well plate and incubated overnight at 37°C in 5% CO2. The next day, the cells were treated with a two-fold serial dilution of compounds. MTT assays were performed as described [27]. After 48 h, (4,5-dimethylthiazol-2-yl-2,5-diphenyltetrazoliumbromide) was added at 2 mg/ml. After 3 h of incubation at 37°C in 5% CO2, DMSO was added to dissolve the formazan crystals. The plates were then read in Chameleon multitechnology microplate reader (Hidex, Turku, Finland) at 570 nm absorbance. The ratio of the absorbance of treated cells to the absorbance of DMSO-treated control cells was determined as percentage cell viability.
To examine whether synthesized Ni(II) thiosemicarbazone ligands or Ni(II)-phosphine complexes were cytotoxic, we treated RAW264.7 (leukemic monocyte macrophage) and HeLa S3 (cervical adenocarcinoma) cells with these compounds for 48 h. The cell viability was determined with MTT assays [33].

COX-2 expression = assay: TNF-induced COX-2 expression; assay type: cell-based; conditions: Figure S1
Method: In addition, we investigated the effect of complex 5 on NF-κB-mediated gene expression in response to TNFα stimulation in human HeLa S3 cells. We treated HeLa S3 cells with complex 5 for 4 h before TNFα treatment for 4 h.
Supplementary file pone.0100933.s001.pdf: Figure S1 Complex 5 inhibits TNF-induced COX2 expression. (PDF) Click here for additional data file.

[2] = system: carrageenan-induced paw edema; assay: Carrageenan-induced paw edema mouse model; assay type: in vivo, C57BL/6 mice; conditions: for Paw size: 1 h after carrageenan, control 7.3±0.8 mm
Method: Male C57BL/6 mice at age 8–12 weeks old were from Jackson Laboratories, USA. Mice were administrated intraperitoneally (i.p.) with two different doses of complex 5 (2.5 mg/kg and 5 mg/kg). Negative control groups were i.p. injected with 200 µl of vehicle (50% v/v ethanol). A standard drug 2 mg/kg dexamethasone (Sigma) was included in the study. After 1 h, paw edema was induced by injecting 50 µl of 1% carrageenan (Sigma) through the plantar tissue at the right hind paw of each mouse. The thickness of right paw of each mouse was measured at 1, 3 and 5 h after carrageenan was administered. Four animals per group were tested (n = 4). Quantification of right hind paw thickness were analyzed for statistical significance using Student's t-test. Animals were housed in individually ventilated cages in specific pathogen free facility, Animal Experimental Unit, University of Malaya. All efforts were made to minimize animal suffering and the number of animals used. At the end of the experiment, mice were euthanized by CO2 asphyxiation. Animal work was approved by the Faculty of Medicine Animal Care and Use Committee (FOMIACUC) at University of Malaya and reported according to ARRIVE guidelines.
To test the in vivo inhibitory effect of complex 5 on inflammation, we administrated two doses of complex 5 (2.5 mg/kg and 5.0 mg/kg) into C57BL/6 wild type mice through i.p. injection. For a positive control, we performed i.p. injection of 2.0 mg/kg dexamethasone into the mice. After 1 h, paw edema in the mice was induced by injecting 1% carrageenan to the right hind paw. The paw sizes were measured at 1, 3 and 5 h after edema induction. The edema formation at the mice paw was due to inflammatory response causing the accumulation of histamine, serotonin, prostaglandin and other secreted inflammatory mediators.
Male C57BL/6 mice at age of 8-12 weeks old were non-injected or injected i.p. with 2.5 mg/kg or 5.0 mg/kg complex 5, whereas for positive controls, mice were injected i.p. with 2.0 mg/kg dexamethasone. After 1 h, acute inflammation was induced in the right hind paw of each mice by injecting 50 µl of carrageenan. The size of the paw were measured after (A) 1 h or, (B) 1, 3 and 5 h post carrageenan injection. Shown were mean ±SD (n = 4). Statistical analysis was performed with Student's t-test.

[3] = system: NF-κB p65 nuclear translocation; assay: NF-κB p65 immunofluorescence staining, TNFα-stimulated HeLa S3; assay type: cell-based, human; conditions: HeLa S3, 6.25 µg/ml pretreatment 4 h
Method: NF-κB Activation Kits (Thermo Scientific) were used as previously described. Cells were pretreated with compounds for 4 h before being stimulated with lipopolysaccharide (LPS) ortumour necrosis factor α (TNFα) for 1 h. Cells were then fixed and permeabilized before probing with NF-κB p65 antibody for 1 h. Staining solution (containing DyLight 488 Goat Anti-Rabbit and Hoechst dye) was then added and incubated for 1 h. The plate with stained cells was evaluated using a Cellomics ArrayScan HCS Reader (Cellomics, PA, USA). Data were captured, extracted and analyzed with ArrayScan II Data Acquisition and Data Viewer version 3.0 (Cellomics).
To examine whether complex 5 blocks the activation of NF-κB by another agonist, similar experiments were performed on HeLa S3 cells induced with TNFα. Similar to LPS-treated RAW264.7 cells, TNFα-induced translocation of NF-κB p65 in HeLa S3 cells (Figure 5A). […] TNF stimulation induced a rapid phosphorylation of IκBα in DMSO treated cells (within 5 minutes).
Figure 5 Complex 5 blocks TNFα-induced NF-κB nuclear translocation. Complex 5 inhibits TNFα -induced NF-B nuclear translocation. (A) NF-κB activation assay on TNFα treated HeLa S3 cells. Staining of Hoechst (nucleus) and NF-κB in HeLa S3 cells. […] Western blot signal intensities were quantified using ImageJ software. […]

[4] = Renal functional test (serum) after oral dosing; assay type: in vivo, C57BL/6 mice; conditions: after two weeks
Method: Renal functional test. C57BL/6 mice at age 8-12 weeks old were administrated orally with control PBS or
with various concentrations (125 mg/kg, 250 mg/kg and 500 mg/kg) of complex 5. n= 6 (3 male and 3
female mice)/group. After two weeks, sera were collected from the mice for renal functional test.

**Q.** What does the source list for NC1=[S+][Ni-2]2([P+](c3ccccc3)(c3ccccc3)c3ccccc3)[O]c3c(O)cccc3C=[N+]2N1.[Cl-] [complex 5, {2-[(2-Carbamothiolylhydrazin-1-ylidene-[kappa]2N1,S)methyl]-6-hydroxyphenolato-[kappa]O1}(triphenylphosphine-[kappa]P)nickel(II) chloride]?
**A.** IC50 (cell growth inhibition) [1]: > 80 µg/mL; IC50 (cell viability, MTT) (RAW264.7 cells): 28.63 ± 2.24 µg/mL; TNF-induced expression of COX-2 (COX-2 expression): inhibited TNF-induced expression of COX-2 in a dose dependent manner; Paw size ([2]; 2.5 mg/kg i.p.): 5.8±0.4 mm; Paw edema formation ([2]; 5.0 mg/kg i.p.): obvious reduction; also recorded: effectively reduced; Paw size ([2]; 5.0 mg/kg i.p.): 5.0±0.2 mm; Paw edema compared to untreated mice ([2]; 3 and 5 h post carrageenan): further reduced; Inhibition of TNFα-induced NF-κB nuclear translocation [3]: significantly blocked; also recorded: sufficient to prevent; Anion Gap ([4]; 125 mg/kg oral): 24.80 mmol/L; CO2 ([4]; 125 mg/kg oral): 18.18 mmol/L; Chlorine ([4]; 125 mg/kg oral): 110.80 mmol/L; Creatinine ([4]; 125 mg/kg oral): < 9 µmol/L; Potassium ([4]; 125 mg/kg oral): 6.68 ± 1.12 mmol/L; Sodium ([4]; 125 mg/kg oral): 147.00 mmol/L; Urea ([4]; 125 mg/kg oral): 10.72 mmol/L; Anion Gap ([4]; 250 mg/kg oral): 26.67 mmol/L; CO2 ([4]; 250 mg/kg oral): 16.36 mmol/L; Chlorine ([4]; 250 mg/kg oral): 111.00 mmol/L; Creatinine ([4]; 250 mg/kg oral): < 9 µmol/L; Potassium ([4]; 250 mg/kg oral): 6.50 ± 0.52 mmol/L; Sodium ([4]; 250 mg/kg oral): 147.50 mmol/L; Urea ([4]; 250 mg/kg oral): 9.96 mmol/L; Anion Gap ([4]; 500 mg/kg oral): 27.00 mmol/L; CO2 ([4]; 500 mg/kg oral): 16.14 mmol/L; Chlorine ([4]; 500 mg/kg oral): 110.83 mmol/L; Creatinine ([4]; 500 mg/kg oral): < 9 µmol/L; Potassium ([4]; 500 mg/kg oral): 5.83 ± 0.74 mmol/L; Sodium ([4]; 500 mg/kg oral): 148.33 mmol/L; Urea ([4]; 500 mg/kg oral): 9.56 mmol/L
